SMILES strings stand for the structures.

We go through 21 molecules from paper PMC6214108, “Synthesis and In Vitro Antitumor Activity of Novel Bivalent β-Carboline-3-carboxylic Acid Derivatives with DNA as a Potential Target” (International Journal of Molecular Sciences, 2018).

What all share (type): cell-based
Assay [1] concerns Hela (cervical carcinoma) cell line. The assay can be described thus: MTT cytotoxicity assay, Hela. The settings on record: Homo sapiens, 48 h, mean of three independent experiments, read-out: IC50 (μM) Mean ± SD, Hela. As to the method:
(§1) All cell lines (A549, SGC-7901, Hela, SMMC-7721, and MCF-7) were purchased from the American Type Culture Collection (Manassas, VA, USA), and were cultured in Dulbecco’s modified Eagle’s medium (DMEM, HycloneLaboratories Inc., Logan, Utah, USA) supplemented with 10% fetal bovine serum (FBS, Gibco&Invitrogen, Carlsbad, CA, USA) at 37 °C and 5% CO2.
(§2) The cytotoxic activities of β-carboline-3-carboxylic acid derivatives were investigated by the MTT method, as previously described. Cells (1 × 10^4 cells per well) seeded into 96-well plates (JET, Guangzhou, China) were incubated with DMEM containing various concentrations (2.5, 5, 10, 20, 40, and 80 μM) of β-carbolines (4A, 4B, 4C, 4D, 6a-6f, 6g-6l, 6m-6r, and 6s-6x) for 48 h at 37 °C and 5% CO2. Then, 10 µL of 5 mg/mL MTT reagent dissolved in PBS (Phosphate buffered saline) was added per well, and plates were incubated at 37 °C for 4 h. The medium was carefully removed and 100 µL dimethyl sulfoxide (DMSO) was added to dissolve the formazan crystals. The absorbance was measured at 490 nm with a microplate reader (ThermoFisher Scientific Inc., Waltham, MA, USA). The β-carbolines were dissolved in DMSO as stock solutions (10 mM) at −20 °C, and diluted in the final experimental solution using DMEM before use. A549 (lung carcinoma), SGC-7901 (gastric carcinoma), Hela (cervical carcinoma), SMMC-7721 (liver carcinoma), and MCF-7 (breast carcinoma) cell lines were used for the antitumor activity screening. The IC50 values were the mean values of three independent experiments.

Assay [2] relates to SMMC-7721 (liver carcinoma) cell line. The assay can be described thus: MTT cytotoxicity assay, SMMC-7721. The settings on record: Homo sapiens, 48 h, mean of three independent experiments, read-out: IC50 (μM) Mean ± SD, SMMC-7721. On the procedure:
as §1, §2
A general note: Tetrazolium assays rely on reduction of a dye to a coloured formazan, in cell work by metabolically active cells.

Assay [3] deals with A549 (lung carcinoma) cell line. The assay can be described thus: MTT cytotoxicity assay, A549. To be noted: Homo sapiens, 48 h, mean of three independent experiments, read-out: IC50 (μM) Mean ± SD, A549. As to the method:
as §1, §2

Assay [4] relates to MCF-7 (breast carcinoma) cell line. The assay can be described thus: MTT cytotoxicity assay, MCF-7. The settings on record: Homo sapiens, MCF7, 48 h, mean of three independent experiments, read-out: IC50 (μM) Mean ± SD, MCF-7. On the procedure: as §1, §2
Assay [5] relates to MRC5 (normal lung cell) cell line. The assay can be described thus: MTT cytotoxicity assay, MRC5. The settings on record: Homo sapiens, 48 h. On the procedure: [The procedure below names another cell line; the source lists this cell line under the same test.] as §2
Assay [6] concerns SGC-7901 (gastric carcinoma) cell line. The assay can be described thus: MTT cytotoxicity assay, SGC-7901. To be noted: Homo sapiens, 48 h, mean of three independent experiments, read-out: IC50 (μM) Mean ± SD, SGC-7901. On the procedure:
as §1, §2

For orientation: IC50 means the concentration that inhibits the measured activity by half. In the case of `Cc1ccc(Cn2c3ccccc3c3cc(C(=O)OCCCOC(=O)c4cc5c6ccccc6n(Cc6ccc(C)cc6)c5cn4)ncc32)cc1` [Compound 6m], the 50% inhibitory concentration (IC50) in assay [1] stood at 17.95 ± 0.02 µM; in assay [2], 33.32 ± 0.03 µM; in assay [3], 19.84 ± 0.04 µM; in assay [4] it was 28.43 ± 0.28 µM; in assay [5], 49.05 ± 0.12 µM; in assay [6], 18.4 ± 0.31 µM.

For the molecule `O=C(OCCCOC(=O)c1cc2c3ccccc3n(Cc3ccccc3F)c2cn1)c1cc2c3ccccc3n(Cc3ccccc3F)c2cn1` [Compound 6s], the 50% inhibitory concentration (IC50) in assay [1] turned out to be 13.77 ± 0.11 µM; in assay [2] it was 14.71 ± 0.08 µM; in assay [3], 6.12 ± 0.03 µM; in assay [4] it was 25.2 ± 1.12 µM; in assay [5], 22.82 ± 0.02 µM; in assay [6] it was 8.06 ± 0.08 µM.

As for `O=C(OCCCCOC(=O)c1cc2c3ccccc3n(Cc3ccccc3)c2cn1)c1cc2c3ccccc3n(Cc3ccccc3)c2cn1` [Compound 6b], the IC50 in assay [1] is 18.2 ± 0.52 µM; in assay [2], 66.53 ± 0.31 µM; in assay [3] it was 12.26 ± 0.04 µM; in assay [4], 70.9 ± 2.33 µM; in assay [5] it was 64.44 ± 0.09 µM; in assay [6], 15.5 ± 0.32 µM.

As for `COC(=O)c1cc2c3ccccc3n(Cc3ccc(C)cc3)c2cn1` [Compound 4C], the half-maximal inhibitory concentration (IC50) in assay [1] was 42.6 ± 0.98 µM; in assay [2], over 80 µM; in assay [3], 28.06 ± 0.13 µM; in assay [4], over 80 µM; in assay [5], 35.35 ± 0.3 µM; in assay [6] it was 47.98 ± 0.09 µM.

Consider `Cc1ccccc1Cn1c2ccccc2c2cc(C(=O)OCCCOC(=O)c3cc4c5ccccc5n(Cc5ccccc5C)c4cn3)ncc21` [Compound 6g], for which the IC50 in assay [1] was determined as 17.99 ± 0.15 µM; in assay [2] it was 73.5 ± 8.06 µM; in assay [3] it was 18.3 ± 0.28 µM; in assay [4] it was 53.1 ± 2.28 µM; in assay [5] it was 32.61 ± 0.1 µM; in assay [6], 29.4 ± 1.03 µM.

`Cc1ccc(Cn2c3ccccc3c3cc(C(=O)OCCCCCOC(=O)c4cc5c6ccccc6n(Cc6ccc(C)cc6)c5cn4)ncc32)cc1` [Compound 6o]: the IC50 stood at 18.8 ± 0.46 µM in assay [1]; 36.62 ± 0.12 µM in assay [2]; 11.2 ± 0.61 µM in assay [3]; 49.4 ± 1.65 µM in assay [4]; 31.28 ± 0.07 µM in assay [5]; 17.18 ± 0.03 µM in assay [6].

For `O=C(OCCCCOC(=O)c1cc2c3ccccc3n(Cc3ccccc3F)c2cn1)c1cc2c3ccccc3n(Cc3ccccc3F)c2cn1` [Compound 6t], the IC50 is 15.2 ± 0.32 µM in assay [1]; 18.26 ± 0.18 µM in assay [2]; 12.4 ± 0.59 µM in assay [3]; 25.7 ± 1.21 µM in assay [4]; over 100 µM in assay [5]; 9.01 ± 0.19 µM in assay [6].

Regarding `O=C(OCCCCCCCCOC(=O)c1cc2c3ccccc3n(Cc3ccccc3)c2cn1)c1cc2c3ccccc3n(Cc3ccccc3)c2cn1` [Compound 6e], the concentration for half-maximal inhibition (IC50) in assay [1] was 54 ± 0.56 µM; in assay [2] it was 75.4 ± 0.89 µM; in assay [3], 50.3 ± 3.15 µM; in assay [4] it was over 80 µM; in assay [5] it was over 100 µM; in assay [6], 69.97 ± 0.13 µM.

`Cc1ccccc1Cn1c2ccccc2c2cc(C(=O)OCCCCCCCCOC(=O)c3cc4c5ccccc5n(Cc5ccccc5C)c4cn3)ncc21` [Compound 6k]: the half-inhibitory concentration (IC50) in assay [1] amounted to 36.7 ± 2.02 µM; in assay [2], 33.9 ± 0.52 µM; in assay [3], 37.4 ± 2.08 µM; in assay [4], 44.9 ± 2.99 µM; in assay [5] it was 65.85 ± 0.07 µM; in assay [6], 35 ± 2.09 µM.

As to `O=C(OCCCCCOC(=O)c1cc2c3ccccc3n(Cc3ccccc3)c2cn1)c1cc2c3ccccc3n(Cc3ccccc3)c2cn1` [Compound 6c], the IC50 was determined as 18.15 ± 0.03 µM in assay [1]; 55.15 ± 0.03 µM in assay [2]; 17.65 ± 0.09 µM in assay [3]; 76.9 ± 3.01 µM in assay [4]; 39.34 ± 0.11 µM in assay [5]; 18.72 ± 0.07 µM in assay [6].

Consider `Cc1ccccc1Cn1c2ccccc2c2cc(C(=O)OCCCCOC(=O)c3cc4c5ccccc5n(Cc5ccccc5C)c4cn3)ncc21` [Compound 6h], for which the concentration for half-maximal inhibition (IC50) came out at 45.8 ± 0.55 µM in assay [1]; 24.7 ± 0.5 µM in assay [2]; 8.09 ± 0.25 µM in assay [3]; 76.7 ± 5 µM in assay [4]; 50.78 ± 0.09 µM in assay [5]; 17.8 ± 0.93 µM in assay [6].

Turning to `O=C(OCCCCCCOC(=O)c1cc2c3ccccc3n(Cc3ccccc3)c2cn1)c1cc2c3ccccc3n(Cc3ccccc3)c2cn1` [Compound 6d], the 50% inhibitory concentration (IC50) was found to be 32.36 ± 0.02 µM in assay [1]; 33.49 ± 0.01 µM in assay [2]; 40.03 ± 0.15 µM in assay [3]; 75.5 ± 2.32 µM in assay [4]; 66.99 ± 0.1 µM in assay [5]; 58.4 ± 0.72 µM in assay [6].

Regarding `Cc1ccc(Cn2c3ccccc3c3cc(C(=O)OCCCCCCOC(=O)c4cc5c6ccccc6n(Cc6ccc(C)cc6)c5cn4)ncc32)cc1` [Compound 6p], the IC50 in assay [1] was 15.7 ± 0.33 µM; in assay [2], 26.8 ± 0.51 µM; in assay [3] it was 19.28 ± 0.02 µM; in assay [4], 55 ± 2.22 µM; in assay [5] it was 47.6 ± 0.02 µM; in assay [6], 17.8 ± 0.22 µM.

On to `O=C(OCCCCCCOC(=O)c1cc2c3ccccc3n(Cc3ccccc3F)c2cn1)c1cc2c3ccccc3n(Cc3ccccc3F)c2cn1` [Compound 6v], for which the IC50 was 22.9 ± 1.36 µM in assay [1]; 24.65 ± 0.06 µM in assay [2]; 7.95 ± 0.06 µM in assay [3]; 42.4 ± 2.08 µM in assay [4]; 67.75 ± 0.11 µM in assay [5]; 8.6 ± 0.13 µM in assay [6].

As to `O=C(OCCCCCCCCOC(=O)c1cc2c3ccccc3n(Cc3ccccc3F)c2cn1)c1cc2c3ccccc3n(Cc3ccccc3F)c2cn1` [Compound 6w], the half-maximal inhibitory concentration (IC50) was determined as 31.3 ± 1.88 µM in assay [1]; 44.57 ± 0.02 µM in assay [2]; 16.5 ± 0.33 µM in assay [3]; 76.3 ± 3.36 µM in assay [4]; 60.78 ± 0.16 µM in assay [5]; 29.98 ± 0.07 µM in assay [6].

With `Cc1ccc(Cn2c3ccccc3c3cc(C(=O)OCCCCOC(=O)c4cc5c6ccccc6n(Cc6ccc(C)cc6)c5cn4)ncc32)cc1` [Compound 6n], the IC50 was found to be 28 ± 0.99 µM in assay [1]; 42.7 ± 2.18 µM in assay [2]; 13.4 ± 0.35 µM in assay [3]; 49.1 ± 2.23 µM in assay [4]; 26.39 ± 0.01 µM in assay [5]; 37.8 ± 1.02 µM in assay [6].

`Cc1ccc(Cn2c3ccccc3c3cc(C(=O)OCCCCCCCCOC(=O)c4cc5c6ccccc6n(Cc6ccc(C)cc6)c5cn4)ncc32)cc1` [Compound 6q]: the half-inhibitory concentration (IC50) was 45.2 ± 1.66 µM in assay [1]; 29.8 ± 0.93 µM in assay [2]; 23.65 ± 0.05 µM in assay [3]; 43.1 ± 2.01 µM in assay [4]; 42.06 ± 0.09 µM in assay [5]; 35.8 ± 0.82 µM in assay [6].

Turning to `O=C(OCCCOC(=O)c1cc2c3ccccc3n(Cc3ccccc3)c2cn1)c1cc2c3ccccc3n(Cc3ccccc3)c2cn1` [Compound 6a], the IC50 in assay [1] stood at 17.89 ± 0.03 µM; in assay [2], 25.7 ± 0.32 µM; in assay [3] it was 24.27 ± 0.12 µM; in assay [4], 73.5 ± 0.88 µM; in assay [5], 32.57 ± 0.1 µM; in assay [6], 17.76 ± 0.17 µM.

Take `COC(=O)c1cc2c3ccccc3n(Cc3ccccc3)c2cn1` [Compound 4A]: the 50% inhibitory concentration (IC50) is over 80 µM in assay [1]; over 80 µM in assay [2]; over 80 µM in assay [3]; over 80 µM in assay [4]; 35.6 ± 0.3 µM in assay [5]; over 80 µM in assay [6].

In the case of `Cc1ccccc1Cn1c2ccccc2c2cc(C(=O)OCCCCCCOC(=O)c3cc4c5ccccc5n(Cc5ccccc5C)c4cn3)ncc21` [Compound 6j], the IC50 was found to be 18.1 ± 1.03 µM in assay [1]; 16.68 ± 0.03 µM in assay [2]; 12.18 ± 0.06 µM in assay [3]; 64.5 ± 3.31 µM in assay [4]; 41 ± 0.07 µM in assay [5]; 26.3 ± 1.03 µM in assay [6].

Regarding `O=c1[nH]cc(F)c(=O)[nH]1` [Compound 5-FU, 5-fluorouracil, reference compound], the half-maximal inhibitory concentration (IC50) is over 80 µM in assay [1]; 52.3 ± 2.06 µM in assay [2]; 15.39 ± 0.09 µM in assay [3]; 57.7 ± 1.39 µM in assay [4]; 16.3 ± 0.3 µM in assay [5]; over 80 µM in assay [6].
